Patent US20110003017A1, “Method for Preparation of Extract from Angelica Gigas Nakai and Composition Containing the Extract” (AZI Co., Ltd., priority 2007, published 2011)

Experiment: antioxidant effects (electron donating ability) using DPPH
Assay type: biochemical
Conditions: DPPH radical scavenging, absorbance at 520 nm
Protocol: The antioxidant effects were determined using 1,1-diphenyl-2-picryl hydrazyl (DPPH). Analysis of the extract using DPPH is performed by the following method.
DPPH having radicals is mostly used for determining radical scavenging performance. DPPH was purchased from Sigma. The following procedures were carried out:
1) 2 ml of 0.1 mM […] (Sigma, D-9132) in ethanol was added to 2 ml of a sample dissolved in ethanol;
2) After mixing the solution for 10 minutes, the mixture was left in a dark place;
3) Absorbance of the resultant product at 520 nm was measured;
4) Calculation of antioxidant efficacy (electron donating ability),
EDA (electron donating ability)=(Cabs−Sabs)/Cabs*100
wherein • Cabs: absorbance of a negative control (which contains ethanol only instead of a sample), • Sabs: absorbance of a sample, and • Positive control: Vitamin E (Fluka, 95240) as a sample.
Antioxidant effects were compared between both extract powders obtained in Examples 1 and 2. Using DPPH analyzed and quantified EDA to determine the antioxidant effects of the extract powder. IC50 means a concentration required for scavenging 50% of radicals and it is determined that the antioxidant effects are enhanced as IC50 value is lowered.

IC50 (concentration required for scavenging 50% of radicals): 15 µg/mL
Substance: Vitamin E
